“Also recorded” adds a separate entry of the source. Where two headings read alike, the source gives them in different places.
Experiments:
[1] = Pharmacokinetics of vorolanib after single and multiple dosing; format: in vivo, human; settings: for Tmax / half-life / Cmax / AUC / Vd/F / AUC(0-t): human, plasma, oral; for Tmax: median (range); for Vd/F: read-out: Vz/F (apparent volume of distribution); for AUC(0-t): read-out: AUC0-24h
Method: In the initial PK evaluation after a single dose, blood samples from participants in the 25 mg group were collected predose (−0.5 h) and at 0.5, 1, 2, 3, 4, 6, 8, 12, 16, 24, 36, and 48 h post-dose; blood samples from participants in the 50 mg and 75 mg groups were collected predose (−0.5 h) and at 0.5, 1, 2, 3, 4, 6, 8, 12, 16, 24, 36, 48, and 72 h post-dose. During continuous dosing, blood in the 50 mg group was obtained on Day 7, Day 14 and Day 21 predose and on Day 30 predose and at 0.5, 1, 2, 3, 4, 6, 8, 12, 16 and 24 h post-dose, while blood in the 75 mg group was obtained on Day 7, Day 14 and Day 21 predose and on Day 30 predose and at 0.5, 1, 2, 3, 4, 6, 8, 12, 16, 24, 36, 48, and 72 h post-dose. The multiple dose data for 25 mg were not collected.
All participants moved from single dosing to multiple daily dosing.

CNV rat model = system: CNV rat model; set-up: method as in PMID 29201457; settings: oral administration; cited from earlier work
[2] = system: oxygen-induced retinopathy mice; set-up: method as in PMID 33610563; settings: cited from earlier work
[3] = system: Caucasian participants with nAMD; settings: cited from earlier work
[4] = system: study eyes of participants with nAMD; test: Efficacy: change from baseline in BCVA (ETDRS), CST and CNV characteristics; format: in vivo, human
Method: The efficacy outcomes included changes from baseline in mean BCVA based on ETDRS, central subfield thickness (CST), and CNV characteristics. CST was confirmed by a […] (Heidelberg Engineering, Heidelberg, Germany) at screening, Day 14, and Day 30; then monthly for the next 6 months; and then every 3 months until the end of treatment. FA was performed by a Heidelberg retina tomograph (Heidelberg Engineering) with an Ophthavision Imaging System (MRP Group, Boston, MA) capture station at the screening, Day 90, Day 180, Day 270 and Day 360 visits.
Because this was a phase I study, no power calculation was performed to determine sample size. All participants who had received at least one dose of vorolanib were included in the safety assessment. All participants who completed the course of vorolanib treatment were included for efficacy assessment. All participants who had received at least one dose of vorolanib and who had PK data were included in the PK analysis. Descriptive statistics were used for analyses. For quantitative data, the means ± standard deviations were selected. All statistical analyses were performed with SAS software, v. 9.4 (SAS Institute Inc., Cary, NC, USA).

[5] = system: human umbilical vein endothelial cells stimulated with rHuVEGF165; set-up: method as in PMID 33610563; settings: HUVEC stimulated with rHuVEGF165; cited from earlier work
[6] = multiple doses 50 mg daily, n = 8, arithmetic mean (%CV)
[7] = multiple doses 75 mg daily, n = 8, arithmetic mean (%CV)

Compound: Cc1[nH]c(/C=C2\C(=O)Nc3ccc(F)cc32)c(C)c1C(=O)N[C@H]1CCN(C(=O)N(C)C)C1 [vorolanib, Vorolanib]
- Tmax ([1]; 50 mg, multiple doses 50 mg daily, n = 8, read-out: Tmax,ss): 5.03 h
- half-life ([1]; 50 mg, single dose 50 mg, n = 8, arithmetic mean (%CV)): 10.7 h
- Cmax ([1]; 50 mg, single dose 50 mg, n = 8, arithmetic mean (%CV), read-out: Cmax): 201 ng/mL
- Tmax ([1]; 50 mg, single dose 50 mg, n = 8, read-out: Tmax): 6 h
- half-life ([1]; 75 mg, multiple doses 75 mg daily, n = 8, arithmetic mean (%CV)): 7.3 h
- Cmax ([1]; 75 mg, multiple doses 75 mg daily, n = 8, arithmetic mean (%CV), read-out: Cmax,ss): 269 ng/mL
- Tmax ([1]; 75 mg, multiple doses 75 mg daily, n = 8, read-out: Tmax,ss): 4 h
- half-life ([1]; 75 mg, single dose 75 mg, n = 8, arithmetic mean (%CV)): 10.3 h
- Cmax ([1]; 75 mg, single dose 75 mg, n = 8, arithmetic mean (%CV), read-out: Cmax): 237 ng/mL
- Tmax ([1]; 75 mg, single dose 75 mg, n = 8, read-out: Tmax): 4 h
- half-life ([1]; single dosing, 25–75 mg cohorts, approximately): 5.9 to 10.7 h
- AUC [1, 6]: 2180 ng·h/mL
- Vd/F [1, 6]: 180 L
- AUC [1, 7]: 1950 ng·h/mL
- Vd/F [1, 7]: 436 L
- AUC(0-t) ([1]; single dose 25 mg, n = 8, arithmetic mean (%CV)): 1010 ng·h/mL
- AUC(0-t) ([1]; single dose 50 mg, n = 8, arithmetic mean (%CV)): 1730 ng·h/mL
- AUC(0-t) ([1]; single dose 75 mg, n = 8, arithmetic mean (%CV)): 1700 ng·h/mL
- CLss/F (apparent oral clearance) [1, 6]: 26.2 (40.1) L/h
- Rac (accumulation ratio based on AUCss) [1, 6]: 1.30 (31.3)
- CLss/F (apparent oral clearance) [1, 7]: 42.4 (32.7) L/h
- Rac (accumulation ratio based on AUCss) [1, 7]: 1.20 (36.2)
- AUC in Chinese people versus Americans ([1]; preliminary PK results, unpublished data): relatively higher AUC in Chinese people than in Americans
- CNV lesion area and pathological neovascularization (CNV rat model): strongly repressed CNV; also recorded: reduced the CNV lesion area and pathological neovascularization
- Retinal neovascularization and avascular area in the retina [2]: markedly inhibited
- Participants with ocular AEs ([3]; 4 of 35 participants, none related to vorolanib): 11.4%
- Participants with serious AEs ([3]; 4 serious AEs in 3 participants, none attributed to vorolanib): 8.6%
- Mean BCVA change ([3]; at 24 weeks): +3.8 letters
- Deaths or DLTs [3]: no deaths or DLTs
- Systemic AEs ([3]; number of events): 94
- Vorolanib-related systemic AEs ([3]; of 94 systemic AEs): 32
- Mean reduction in CST ([3]; participants that completed 24 weeks): 50 μm
- Mean Change from Baseline to day 180 CST ([4]; 25 mg cohort, N 16): −11.7 μm
- Mean Change from Baseline to day 360 BCVA ([4]; 25 mg cohort, N 16): +4.3 letters
- Mean Change from Baseline to day 360 CST ([4]; 25 mg cohort, N 16): −27.0 μm
- Mean Change from Baseline to day 180 CST ([4]; 50 mg cohort, N 16): −85.0 μm
- Mean Change from Baseline to day 360 BCVA ([4]; 50 mg cohort, N 16): +8.5 letters
- Mean Change from Baseline to day 360 CST ([4]; 50 mg cohort, N 16): −54.8 μm
- Mean Change from Baseline to day 180 CST ([4]; 75 mg cohort, N 8): −33.0 μm
- Mean Change from Baseline to day 360 BCVA ([4]; 75 mg cohort, N 8): +12.0 letters
- Mean Change from Baseline to day 360 CST ([4]; 75 mg cohort, N 8): −45.5 μm
- Mean decrease in CNV area ([4]; 41 participants, baseline to Day 360, range −3.8–0.2): −0.9 mm^2
- Mean decrease in lesion area ([4]; 41 participants, baseline to Day 360, range −4.8–0.5): −1.3 mm^2
- Mean decrease in CNV leakage ([4]; 41 participants, baseline to Day 360, range −10.8–0.2): −4.0 mm^2
- Mean BCVA improvement at follow-up after treatment ([4]; 75.6% of participants who continued follow-up one month after vorolanib treatment): 2.6 letters
- Participants evaluable at Day 360 who maintained or improved vision ([4]; Day 360): 12 (29.3%) participants (%)
- Reduced CNV area ([4]; accompanying decline in CNV leakage): 37.4%
- Mean Change from Baseline to day 180 CST ([4]; all cohorts, N 41): −48.6 μm
- Mean Change from Baseline to day 360 CST ([4]; all cohorts, N 41, range −258–40): −44.0 μm
- Mean reduction in CST ([4]; by Day 180, all participants): 48.6 μm
- Antiangiogenic effects [5]: highly antiangiogenic effects

— paper PMC10564794, “Safety and tolerability of oral vorolanib for neovascular (wet) age-related macular degeneration: a phase I, open-label study” (Eye, 2023)
